What all share (type): biochemical
One assay addresses T1, hMMP 13 (Homo sapiens, UniProt P45452).
T1 construct: purchased R&D systems
Briefly: Residual enzyme activity of other metalloproteases. The settings on record: read-out: Residual enzyme activity MMP13; for remaining activity at 10 µM: 10 μM inhibitor; for remaining activity at 200 µM: 200 μM inhibitor. How it is done:
(§1) A typical assay of 250 μl total volume measured in black 96 well plates consisted of 100 μl buffer, 50 μl enzyme at a final concentration of 5e-8 M to 2e-10 M, 50 μl substrate (0.15 to 80 μM, in buffer, 0.5% DMSO) and 50 μl inhibitor solution (in buffer, 1% DMSO). In case of 125 μl assay volume (black 96 half area well plates) all volumes were cut in half. Enzymatic activity of ADAMs was measured in 384 well plates with 60 μl total assay volume consisting of 20 μl inhibitor, 20 μl buffer, 10 μl enzyme and 10 μl substrate.
(§2) MMPs were activated prior to measurement by APMA (p-aminophenylmercuric acetate) treatment according to manufacturer's instructions (R&D systems).

A further assay concerns the target T2, hMMP 2 (Homo sapiens, UniProt P08253).
T2 construct: purchased Abnova
T2 sequence (P08253 110-660): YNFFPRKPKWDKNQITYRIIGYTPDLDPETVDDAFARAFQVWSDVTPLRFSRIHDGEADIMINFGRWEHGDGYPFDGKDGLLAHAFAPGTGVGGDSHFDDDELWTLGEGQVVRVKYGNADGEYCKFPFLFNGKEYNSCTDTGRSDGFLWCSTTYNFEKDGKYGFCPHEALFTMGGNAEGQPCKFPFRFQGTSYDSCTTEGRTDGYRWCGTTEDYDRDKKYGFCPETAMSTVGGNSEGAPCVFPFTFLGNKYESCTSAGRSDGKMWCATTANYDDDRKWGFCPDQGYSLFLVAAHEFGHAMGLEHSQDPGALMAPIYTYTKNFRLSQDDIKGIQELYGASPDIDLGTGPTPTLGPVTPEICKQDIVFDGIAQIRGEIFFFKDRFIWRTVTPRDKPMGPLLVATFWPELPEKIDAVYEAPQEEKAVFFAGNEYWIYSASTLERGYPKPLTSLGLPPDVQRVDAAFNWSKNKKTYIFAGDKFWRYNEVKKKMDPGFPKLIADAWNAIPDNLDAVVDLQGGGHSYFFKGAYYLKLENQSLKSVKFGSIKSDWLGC
Kind of assay: Residual enzyme activity of other metalloproteases. The following applies: read-out: Residual enzyme activity MMP2; for remaining activity at 10 µM: 10 μM inhibitor; for remaining activity at 200 µM: 200 μM inhibitor. As to the method:
as §1, §2

In a further assay the target is T3, hMMP 9 (Homo sapiens, UniProt P14780).
T3 construct: purchased R&D systems
T3 sequence (P14780 107-707 limits assumed): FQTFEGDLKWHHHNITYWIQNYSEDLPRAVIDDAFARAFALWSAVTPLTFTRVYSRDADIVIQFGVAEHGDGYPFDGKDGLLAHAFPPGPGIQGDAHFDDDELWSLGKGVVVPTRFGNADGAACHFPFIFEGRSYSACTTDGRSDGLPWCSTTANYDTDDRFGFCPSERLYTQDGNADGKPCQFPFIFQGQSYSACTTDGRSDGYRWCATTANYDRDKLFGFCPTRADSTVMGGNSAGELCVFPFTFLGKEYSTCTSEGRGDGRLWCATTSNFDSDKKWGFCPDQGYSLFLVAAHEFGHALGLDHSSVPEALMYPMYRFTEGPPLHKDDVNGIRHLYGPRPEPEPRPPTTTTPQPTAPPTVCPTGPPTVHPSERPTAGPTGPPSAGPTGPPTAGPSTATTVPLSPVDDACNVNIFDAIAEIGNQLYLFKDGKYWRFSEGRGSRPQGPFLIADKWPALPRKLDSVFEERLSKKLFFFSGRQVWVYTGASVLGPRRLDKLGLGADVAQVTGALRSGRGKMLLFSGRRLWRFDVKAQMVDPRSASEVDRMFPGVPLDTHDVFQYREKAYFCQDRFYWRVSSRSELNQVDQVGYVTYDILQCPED
Briefly: Residual enzyme activity of other metalloproteases. The following applies: read-out: Residual enzyme activity MMP9; for remaining activity at 10 µM: 10 μM inhibitor; for remaining activity at 200 µM: 200 μM inhibitor. How it is done: as §1, with “The determination of enzymatic activity was based on the cleavage of internally quenched peptide substrates. A typical” for “A typical”
as §2

The next assay deals with T4, hADAM 10 (Homo sapiens, UniProt O14672).
T4 construct: purchased R&D systems
T4 sequence (O14672 214-748): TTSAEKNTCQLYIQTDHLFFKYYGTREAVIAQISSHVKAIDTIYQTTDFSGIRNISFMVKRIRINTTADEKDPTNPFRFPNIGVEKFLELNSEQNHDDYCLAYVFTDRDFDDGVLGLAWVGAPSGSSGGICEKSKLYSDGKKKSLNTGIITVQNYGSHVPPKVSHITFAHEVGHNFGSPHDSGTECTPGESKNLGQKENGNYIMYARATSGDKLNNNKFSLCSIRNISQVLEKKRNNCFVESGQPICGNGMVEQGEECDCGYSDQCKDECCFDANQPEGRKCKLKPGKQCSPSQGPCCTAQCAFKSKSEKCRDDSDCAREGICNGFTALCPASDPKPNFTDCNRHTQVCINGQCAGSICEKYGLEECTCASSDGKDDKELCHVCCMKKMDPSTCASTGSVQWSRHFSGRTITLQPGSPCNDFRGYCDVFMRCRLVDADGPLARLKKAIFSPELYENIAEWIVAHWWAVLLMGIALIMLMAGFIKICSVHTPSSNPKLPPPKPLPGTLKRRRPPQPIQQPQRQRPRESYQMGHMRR
Briefly: Residual enzyme activity of other metalloproteases. The following applies: read-out: Residual enzyme activity ADAM10; for remaining activity at 10 µM: 10 μM inhibitor; for remaining activity at 200 µM: 200 μM inhibitor. As to the method:
as §1, with “The determination of enzymatic activity was based on the cleavage of internally quenched peptide substrates. A typical” for “A typical”

The next assay addresses T5, hADAM 17 (Homo sapiens, UniProt P78536).
T5 construct: purchased R&D systems
Kind of assay: Residual enzyme activity of other metalloproteases. The settings on record: read-out: Residual enzyme activity ADAM17; for remaining activity at 10 µM: 10 μM inhibitor; for remaining activity at 200 µM: 200 μM inhibitor. How it is done: as §1, with “The determination of enzymatic activity was based on the cleavage of internally quenched peptide substrates. A typical” for “A typical”

In the next assay the target is T6, hMeprin β (Homo sapiens, UniProt Q16820).
T6 sequence (Q16820 62-701): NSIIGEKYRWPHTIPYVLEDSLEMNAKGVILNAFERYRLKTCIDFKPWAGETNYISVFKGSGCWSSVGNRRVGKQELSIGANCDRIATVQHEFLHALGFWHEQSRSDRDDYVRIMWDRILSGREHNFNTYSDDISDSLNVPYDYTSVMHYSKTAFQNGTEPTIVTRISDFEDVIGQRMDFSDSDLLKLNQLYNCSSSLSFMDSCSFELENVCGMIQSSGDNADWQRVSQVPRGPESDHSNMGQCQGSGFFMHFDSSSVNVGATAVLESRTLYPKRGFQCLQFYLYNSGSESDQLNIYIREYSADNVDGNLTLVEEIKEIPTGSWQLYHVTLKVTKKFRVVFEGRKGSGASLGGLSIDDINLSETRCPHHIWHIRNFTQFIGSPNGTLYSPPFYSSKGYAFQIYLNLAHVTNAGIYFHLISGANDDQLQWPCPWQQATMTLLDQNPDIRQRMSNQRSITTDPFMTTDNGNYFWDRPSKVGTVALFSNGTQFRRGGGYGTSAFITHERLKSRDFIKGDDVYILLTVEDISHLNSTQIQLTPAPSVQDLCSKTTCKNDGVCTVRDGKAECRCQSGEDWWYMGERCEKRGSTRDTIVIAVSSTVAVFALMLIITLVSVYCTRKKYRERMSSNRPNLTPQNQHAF
Kind of assay: Enzymatic assay, quenched peptide substrate cleavage, method B. The following applies: geometric mean (geometric SD factor in parentheses); for Ki: Morrison's equation, read-out: Meprin beta Ki(app); for IC50: read-out: Meprin beta IC50. An outline of the steps:
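Cleavage of internally quenched peptides was read at 340/420 nm and 30° C., with enzyme at 5e-8 to 2e-10 M and substrate at 0.15–80 μM. Inhibitor solutions contained 1% DMSO and substrate 0.5% DMSO. Method B gave Ki(app) values via Morrison's equation, with kinetics measured in at least duplicate on separate days.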

T5 sequence (P78536 215-824): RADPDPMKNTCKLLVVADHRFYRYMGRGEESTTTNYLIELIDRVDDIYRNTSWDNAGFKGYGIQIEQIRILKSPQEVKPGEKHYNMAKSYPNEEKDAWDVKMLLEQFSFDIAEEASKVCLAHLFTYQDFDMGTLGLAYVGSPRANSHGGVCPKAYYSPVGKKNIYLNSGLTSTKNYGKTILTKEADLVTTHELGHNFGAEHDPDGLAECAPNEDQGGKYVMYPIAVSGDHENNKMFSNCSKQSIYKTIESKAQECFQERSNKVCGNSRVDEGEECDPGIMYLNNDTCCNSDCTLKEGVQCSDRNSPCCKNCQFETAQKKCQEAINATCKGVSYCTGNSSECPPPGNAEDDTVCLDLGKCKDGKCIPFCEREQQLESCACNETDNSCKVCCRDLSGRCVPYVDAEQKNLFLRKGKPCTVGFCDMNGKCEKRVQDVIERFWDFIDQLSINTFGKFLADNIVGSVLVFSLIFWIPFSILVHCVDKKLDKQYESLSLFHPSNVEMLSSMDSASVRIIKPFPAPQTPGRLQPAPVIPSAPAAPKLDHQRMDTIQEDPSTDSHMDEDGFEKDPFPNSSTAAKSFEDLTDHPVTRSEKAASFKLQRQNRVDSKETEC

As to `O=C(Cc1c(-c2ccccc2)nn(Cc2cccc(C(=O)O)c2)c1-c1ccccc1)NO` [Example 41, 3-[[4-[2-(Hydroxyamino)-2-oxo-ethyl]-3,5-diphenyl-1H-pyrazol-1-yl]methyl]benzoic acid], the remaining activity at 10 µM at hMMP 13 worked out at 83%; on hMMP 2, 89%; on hMMP 9 it was 83%; at hADAM 10, 92%; at hADAM 17, 84%. Also, the remaining activity at 200 µM at hMMP 13 came to 34%; at hMMP 2, 34%; at hMMP 9, 36%; on hADAM 10, 66%; on hADAM 17 it was 25%. Besides, the Ki at hMeprin β stood at 11 nM. Besides, on hMeprin β, the 50% inhibitory concentration (IC50) – broadly, the concentration at which inhibition is half-maximal – amounted to 10 nM.

On to `O=C(Cc1c(-c2cc(F)c(O)c(Cl)c2)n[nH]c1-c1ccccc1)NO` [Example 54, 2-[3-(3-Chloro-5-fluoro-4-hydroxy-phenyl)-5-phenyl-1H-pyrazol-4-yl]ethanehydroxamic acid], for which the remaining activity at 10 µM at hMMP 13 worked out at 88%; at hMMP 2, 66%; at hMMP 9 it was 86%; on hADAM 10 it was 104%; at hADAM 17 it was 68%. Besides, the remaining activity at 200 µM is 28% at hMMP 13; 17% on hMMP 2; 39% at hMMP 9; 61% at hADAM 10; 5% on hADAM 17. Further, the Ki at hMeprin β worked out at 0.42 nM. The IC50 on hMeprin β worked out at 0.44 nM.

Take `O=C(Cc1c(-c2ccccc2)nn(Cc2ccc(C(=O)O)cc2)c1-c1ccccc1)NO` [Example 40, 4-[[4-(2-(Hydroxyamino)-2-oxo-ethyl]-3,5-diphenyl-1H-pyrazol-1-yl]methyl]benzoic acid]: the remaining activity at 10 µM on hMMP 13 came out at 86%; on hMMP 2, 85%; on hMMP 9 it was 80%; at hADAM 10, 91%; at hADAM 17, 67%. The remaining activity at 200 µM was determined as 22% at hMMP 13; 24% on hMMP 2; 30% at hMMP 9; 43% on hADAM 10; 9% at hADAM 17. In addition, the Ki at hMeprin β stood at 9 nM. The IC50 at hMeprin β is 9 nM.

As for `O=C(Cn1c(-c2ccccc2)nnc1-c1ccccc1)NO` [Example 7, 2-(3,5-Diphenyl-1,2,4-triazol-4-yl)ethanehydroxamic acid], the remaining activity at 10 µM on hMMP 13 worked out at 93%; on hMMP 2, 95%; at hMMP 9, 99%; at hADAM 10, 89%; on hADAM 17, 90%. In addition, the remaining activity at 200 µM at hMMP 13 came to 76%; at hMMP 2, 70%; on hMMP 9, 54%; at hADAM 10 it was 83%; on hADAM 17, 56%.

As for `O=C(Cn1c(-c2ccccc2)ccc1-c1ccccc1)NO` [Example 9, 2-(2,5-Diphenylpyrrol-1-yl)ethanehydroxamic acid], the remaining activity at 10 µM was 79% on hMMP 13; 83% on hMMP 2; 92% at hMMP 9; 83% on hADAM 10; 82% at hADAM 17. The remaining activity at 200 µM on hMMP 13 stood at 5%; on hMMP 2, 1%; on hMMP 9, 1%; on hADAM 10, 29%; on hADAM 17, 25%.

As to `O=C(Cn1c(-c2ccccc2)cc2ccccc21)NO` [Example 25, 2-(2-Phenylindol-1-yl)ethanehydroxamic acid], the remaining activity at 10 µM is 77% on hMMP 13; 85% on hMMP 2; 90% on hMMP 9; 89% on hADAM 10; 88% on hADAM 17. For the same compound, the remaining activity at 200 µM at hMMP 13 was found to be 54%; at hMMP 2 it was 41%; at hMMP 9 it was 53%; at hADAM 10, 68%; on hADAM 17 it was 56%.

As to `O=C(CCc1c(-c2ccccc2)noc1-c1ccccc1)NO` [Example 4, 3-(3,5-Diphenylisoxazol-4-yl)propanehydroxamic acid], the remaining activity at 10 µM on hMMP 13 came to 79%; on hMMP 2, 98%; at hMMP 9 it was 89%; on hADAM 10 it was 75%; at hADAM 17, 75%. Further, the remaining activity at 200 µM at hMMP 13 came out at 66%; on hMMP 2, 74%; on hMMP 9, 39%; at hADAM 10, 21%; on hADAM 17, 24%.
